The test concerns the target T1, mutant G12C K-RAS (Homo sapiens, UniProt P01116, G12C).
T1 construct: made in house; host or cells: E. coli BL21
Nature of the test: covalent adduct formation (CAF) with mutant G12C K-RAS. Type of test: binding. The conditions noted are these: for % CAF @ 10 μM,1 h: Table 6; for % CAF (60 min): after 60 minutes at 10 micromolar. How it is done:
Embodiments disclosed herein are further illustrated by the following examples in Tables 1-4 and the Examples hereinbelow. The Tables indicate the compound number, structure, the observed mass spectral molecular weight peak, and covalent adduct formation (CAF) with a mutant G12C K-RAS after 60 minutes at a concentration of 10 micromolar.

[1] abbreviates: Table 1, Pyrimidone Core-Morpholine Unsubstituted.
Setting [2] is: Table 2, Pyrimidone Core-Morpholine Substituted.

As to `C=CC(=O)N1C[C@H](C)N(c2nc(=O)n3c4c(c(-c5ccc(F)cc5F)c(Cl)cc24)OC[C@H]3CCCn2ccnc2)C[C@H]1C` [Example 272, (3R)-3-(3-(1H-imidazol-1-yl)propyl)-7-((2S,5R)-4-acryloyl-2,5-dimethylpiperazin-1-yl)-9-chloro-10-(2,4-difluorophenyl)-2,3-dihydro-5H-[1,4]oxazino[2,3,4-ij]quinazolin-5-one], the “% CAF @ 10 μM,1 h” value turned out to be 89.4%. For the compound `C=CC(=O)N1C[C@H](C)N(c2nc(=O)n3c4c(c(-c5ccc(F)cc5F)c(Cl)cc24)OC[C@H]3CN2CCN(C)CC2)C[C@H]1C` [Example 256, (3R)-7-((2S,5R)-4-acryloyl-2,5-dimethylpiperazin-1-yl)-9-chloro-10-(2,4-difluorophenyl)-3-((4-methylpiperazin-1-yl)methyl)-2H-[1,4]oxazino[2,3,4-ij]quinazolin-5(3H)-one], the “% CAF @ 10 μM,1 h” value is given as 80.1%. Take `C=CC(=O)N1C[C@H](C)N(c2nc(=O)n3c4c(c(-c5ccc(F)cc5F)c(Cl)cc24)OC[C@@H]3COC2CCN(C)C2)C[C@H]1C` (stereo in doubt) [Example 336, (3S)-7-((2S,5R)-4-acryloyl-2,5-dimethylpiperazin-1-yl)-9-chloro-10-(2,4-difluorophenyl)-3-((((S)-1-methylpyrrolidin-3-yl)oxy)methyl)-2H-[1,4]oxazino[2,3,4-ij]quinazolin-5(3H)-one]: the “% CAF @ 10 μM,1 h” value stood at 79%.

For the compound `C=CC(=O)N1C[C@H](C)N(c2nc(=O)n3c4c(c(-c5ccc(F)cc5F)c(Cl)cc24)OC[C@H]3Cn2ccnc2)C[C@H]1C` [Example 267, (3R)-3-((1H-imidazol-1-yl)methyl)-7-((2S,5R)-4-acryloyl-2,5-dimethylpiperazin-1-yl)-9-chloro-10-(2,4-difluorophenyl)-2H-[1,4]oxazino[2,3,4-ij]quinazolin-5(3H)-one], the “% CAF @ 10 μM,1 h” value came out at 13.6%. The same measure, in the same setting: with `C=CC(=O)N1C[C@H](C)N(c2nc(=O)n3c4c(c(-c5ccc(F)cc5F)c(Cl)cc24)OC[C@H]3CCCN2CC(F)(F)C2)C[C@H]1C` [Example 298, (3R)-7-((2S,5R)-4-acryloyl-2,5-dimethylpiperazin-1-yl)-9-chloro-3-(3-(3,3-difluoroazetidin-1-yl)propyl)-10-(2,4-difluorophenyl)-2,3-dihydro-5H-[1,4]oxazino[2,3,4-ij]quinazolin-5-one] the figure was 68%. The same measure, in the same setting: with `C=CC(=O)N1C[C@H](C)N(c2nc(=O)n3c4c(c(-c5ccc(F)cc5F)c(Cl)cc24)OC[C@H]3CCCN2CCC(F)(F)C2)C[C@H]1C` [Example 271, (3R)-7-((2S,5R)-4-acryloyl-2,5-dimethylpiperazin-1-yl)-9-chloro-10-(2,4-difluorophenyl)-3-(3-(3,3-difluoropyrrolidin-1-yl)propyl)-2,3-dihydro-5H-[1,4]oxazino[2,3,4-ij]quinazolin-5-one] the figure was 93.6%. As to `C=CC(=O)N1C[C@H](C)N(c2nc(=O)n3c4c(c(-c5cccc6ccccc56)ccc24)OCC3)C[C@H]1C` [Example 13, 7-((2S,5R)-4-acryloyl-2,5-dimethylpiperazin-1-yl)-10-(naphthalen-1-yl)-2H-[1,4]oxazino[2,3,4-ij]quinazolin-5(3H)-one], the “% CAF (60 min)” value under setting [1] is 3%. Regarding `C=CC(=O)N1C[C@H](C)N(c2nc(=O)n3c4c(c(-c5ccc(F)cc5F)c(Cl)cc24)OC[C@H]3CCCN(CC(F)(F)F)C2COC2)C[C@H]1C` [Example 331, (3R)-7-((2S,5R)-4-acryloyl-2,5-dimethylpiperazin-1-yl)-9-chloro-10-(2,4-difluorophenyl)-3-(3-(oxetan-3-yl(2,2,2-trifluoroethyl)amino)propyl)-2,3-dihydro-5H-[1,4]oxazino[2,3,4-ij]quinazolin-5-one], the “% CAF @ 10 μM,1 h” value was found to be 59.2%. Same read-out and setting: the same measure for `C=CC(=O)N1C[C@H](C)N(c2nc(=O)n3c4c(c(-c5c(F)ccc6[nH]cnc56)ccc24)OCC3)C[C@H]1C` [Example 201, 7-((2S,5R)-4-acryloyl-2,5-dimethylpiperazin-1-yl)-10-(5-fluoro-1H-benzo[d]imidazol-4-yl)-2,3-dihydro-5H-[1,4]oxazino[2,3,4-ij]quinazolin-5-one]: 0%.

Turning to `C=CC(=O)N1C[C@H](C)N(c2nc(=O)n3c4c(c(-c5c(O)cccc5F)c(Cl)cc24)OC[C@@H]3CO)C[C@H]1C` [Example 27, (3S,10S)-7-((2S,5R)-4-acryloyl-2,5-dimethylpiperazin-1-yl)-9-chloro-10-(2-fluoro-6-hydroxyphenyl)-3-(hydroxymethyl)-2H-[1,4]oxazino[2,3,4-ij]quinazolin-5(3H)-one], the “% CAF (60 min)” value under setting [2] amounted to 85.5%. With `C=CC(=O)N1C[C@H](C)N(c2nc(=O)n3c4c(c(-c5ccc(F)cc5F)c(Cl)cc24)O[C@H](CCCN2CCN(C)CC2)C3)C[C@H]1C` [Example 260, (2R)-7-((2S,5R)-4-acryloyl-2,5-dimethylpiperazin-1-yl)-9-chloro-10-(2,4-difluorophenyl)-2-(3-(4-methylpiperazin-1-yl)propyl)-2,3-dihydro-5H-[1,4]oxazino[2,3,4-ij]quinazolin-5-one], the “% CAF @ 10 μM,1 h” value came to 48.4%. The same measure, in the same setting: the same measure for `C=CC(=O)N1C2CC(=O)CC1CN(c1nc(=O)n3c4c(c(-c5ccc(F)cc5F)c(C(F)(F)F)cc14)OCC3)C2` [Example 337, 7-(9-acryloyl-7-oxo-3,9-diazabicyclo[3.3.1]nonan-3-yl)-10-(2,4-difluorophenyl)-9-(trifluoromethyl)-2,3-dihydro-5H-[1,4]oxazino[2,3,4-ij]quinazolin-5-one]: 95.9%; for `C=CC(=O)N1C[C@H](C)N(c2nc(=O)n3c4c(c(-c5c(F)ccc6cc[nH]c(=O)c56)ccc24)OCC3)C[C@H]1C` [Example 224, 7-((2S,5R)-4-acryloyl-2,5-dimethylpiperazin-1-yl)-10-(7-fluoro-1-oxo-1,2-dihydroisoquinolin-8-yl)-2,3-dihydro-5H-[1,4]oxazino[2,3,4-ij]quinazolin-5-one]: 0%. On the same count and under the same terms, with `C=CC(=O)N1C[C@H](C)N(c2nc(=O)n3c4c(c(-c5ccc(F)cc5F)c(Cl)cc24)OC[C@H]3CCN2CCOCC2)C[C@H]1C` [Example 213, (3R)-7-((2S,5R)-4-acryloyl-2,5-dimethylpiperazin-1-yl)-9-chloro-10-(2,4-difluorophenyl)-3-(2-morpholinoethyl)-2H-[1,4]oxazino[2,3,4-ij]quinazolin-5(3H)-one] the figure was 90.6%; with `C=CC(=O)N1C[C@H](C)N(c2nc(=O)n3c4c(c(-c5ccc(F)cc5F)c(Cl)cc24)OC[C@H]3CN2C[C@H]3CC[C@@H](C2)N3C)C[C@H]1C` [Example 285, (3R)-7-((2S,5R)-4-acryloyl-2,5-dimethylpiperazin-1-yl)-9-chloro-10-(2,4-difluorophenyl)-3-(((1R,5S)-8-methyl-3,8-diazabicyclo[3.2.1]octan-3-yl)methyl)-2H-[1,4]oxazino[2,3,4-ij]quinazolin-5(3H)-one], 86.2%.

With `C=CC(=O)N1CCN(c2nc(=O)n3c4c(c(-c5c(O)cccc5F)c(Cl)cc24)OC[C@H]3CO)[C@@H](C)C1` [Example 23, (3R,10R)-7-((S)-4-acryloyl-2-methylpiperazin-1-yl)-9-chloro-10-(2-fluoro-6-hydroxyphenyl)-3-(hydroxymethyl)-2H-[1,4]oxazino[2,3,4-ij]quinazolin-5(3H)-one], under setting [2], the “% CAF (60 min)” value is on record as 0%. On to `C=CC(=O)N1C[C@H](C)N(c2nc(=O)n3c4c(c(-c5ccc(F)cc5F)c(Cl)cc24)OC[C@@H]3CN2CCC(F)(F)C2)C[C@H]1C` (stereo in doubt) [Example 202], for which the “% CAF @ 10 μM,1 h” value was 34.2%. The same measure, in the same setting: the same measure for `C=CC(=O)N1C[C@H](C)N(c2nc(=O)n3c4c(c(-c5ccc(F)cc5F)c(Cl)cc24)OC[C@H]3CC2CCN(C3COC3)CC2)C[C@H]1C` [Example 316, (3R)-7-((2S,5R)-4-acryloyl-2,5-dimethylpiperazin-1-yl)-9-chloro-10-(2,4-difluorophenyl)-3-((1-(oxetan-3-yl)piperidin-4-yl)methyl)-2H-[1,4]oxazino[2,3,4-ij]quinazolin-5(3H)-one]: 84.2%; for `C=CC(=O)N1C[C@H](C)N(c2nc(=O)n3c4c(c(-c5ccc(F)cc5F)c(Cl)cc24)O[C@H](CCCN2C4CCC2COC4)C3)C[C@H]1C` [Example 261, (2R)-2-(3-(3-oxa-8-azabicyclo[3.2.1]octan-8-yl)propyl)-7-((2S,5R)-4-acryloyl-2,5-dimethylpiperazin-1-yl)-9-chloro-10-(2,4-difluorophenyl)-2,3-dihydro-5H-[1,4]oxazino[2,3,4-ij]quinazolin-5-one]: 21.1%. On to `C=CC(=O)N1CCN(c2nc(=O)n3c4c(c(-c5c(C)ccc6[nH]ncc56)c(Cl)cc24)OCC3)CC1` [Example 8, (S)-7-(4-acryloylpiperazin-1-yl)-9-chloro-10-(5-methyl-1H-indazol-4-yl)-2H-[1,4]oxazino[2,3,4-ij]quinazolin-5(3H)-one], for which the “% CAF (60 min)” value under setting [1] is given as 0%. As for `C=CC(=O)N1C[C@H](C)N(c2nc(=O)n3c4c(c(-c5cc(Cl)ccc5F)c(Cl)cc24)OC[C@H]3CN2CCOCC2)C[C@H]1C` [Example 212, (3R)-7-((2S,5R)-4-acryloyl-2,5-dimethylpiperazin-1-yl)-9-chloro-10-(5-chloro-2-fluorophenyl)-3-(morpholinomethyl)-2H-[1,4]oxazino[2,3,4-ij]quinazolin-5(3H)-one], the “% CAF @ 10 μM,1 h” value stood at 59.8%.

`C=CC(=O)N1C[C@H](C)N(c2nc(=O)n3c4c(c(-c5ccc(F)cc5F)c(Cl)cc24)OC[C@@H]3CC2CCN(C)CC2)C[C@H]1C` [Example 324, (3S)-7-((2S,5R)-4-acryloyl-2,5-dimethylpiperazin-1-yl)-9-chloro-10-(2,4-difluorophenyl)-3-((1-methylpiperidin-4-yl)methyl)-2H-[1,4]oxazino[2,3,4-ij]quinazolin-5(3H)-one]: the “% CAF @ 10 μM,1 h” value was found to be 63.4%.

For the origin of these results see patent US12162893B2 (Erasca, Inc., priority 2020, dated 2024).
